From article PMC10826971, “Evaluating protein cross-linking as a therapeutic strategy to stabilize SOD1 variants in a mouse model of familial ALS” (PLOS Biology, 2024)

Tests used:
SOD1^G93A [1] = biological target: T1, SOD1^G93A (Homo sapiens, UniProt P00441, G94A); assay: Small-angle x-ray solution scattering (SAXS); set-up: made in house; host or cells: EGy118ΔSOD1 yeast, YEp351 expression vector; conditions: GNOM; untreated over 200 Å
Experimental: SAXS data were collected at the G1 beamline at Cornell High Energy Synchrotron Source (CHESS). For each sample, 2 measurements were taken, one of the protein with buffer and one with buffer by itself. Solution scattering data were captured every second for 10 frames. The 10 frames of both buffer and protein were then averaged and the buffer was subtracted out to get the scattering for the protein. Samples were run in a 96-well plate and held at 4°C continuously. Data collection was in the scattering angle (q) range of 0.008 to 0.71 Å^-1 and processed using the software, RAW.
Control sample contained 5% MeOH (final conc. 2.5%). Samples were then incubated at 37°C for 6 h to ensure complete cross-linking. After incubation, excess compound was buffer exchanged out of each sample using a 10 kDa MWCO ultrafiltration device, and 320 μL is diluted to 15 mL into HEPES buffer, spun down to approximately 500 μL, and resuspended in another 15 mL of HEPES buffer. After the final spin, samples were removed and concentrated in a smaller ultrafiltration device and brought to approximately 70 μL final volume (4.7 μm). Samples were flash frozen and stored at –80°C prior to analysis.
The GNOM program was used to evaluate the pair distribution plot using an indirect Fourier transform. […]

human serum albumin = human serum albumin (Homo sapiens, UniProt P02768); format: in vitro ADME
SOD1^G93A [2] = biological target: T1, SOD1^G93A; assay: Pharmacodynamic profiling: cross-linked SOD1^G93A dimer in blood (RBC) by LC-MS; format: in vivo, mouse; set-up: Extraction of SOD1^G93A from red blood cell (RBC) protein was performed as previously described; tissue Jackson Laboratory 002726; host or cells: red blood cells of transgenic B6SJL-Tg(SOD1*G93A)1Gur/J mice; conditions: for % Dimer (cross-linked SOD1^G93A in blood): 10 mg/kg IV single dose
fALS SOD1 variants = assay: Size exclusion chromatography (SEC) under native conditions; set-up: species or system human
Experimental: We have analyzed samples with and without cross-linker via SEC with high performance liquid chromatography (SEC-HPLC) to assess the SOD1 protein composition in its native state. […] For inducing aggregation, all samples (final conc. 1 μm) were incubated at 37°C for 1 h prior the SEC analysis. […] An isocratic mobile phase consisting of 100 mM sodium phosphate, 200 mM sodium chloride (pH 7.4) was used for 6 min to analyze each sample at wavelength of 280 nm. Waters BEH 200 standard was injected at the beginning, middle, and at the end to confirm the retention time was not shifting throughout the entire experiment.

T1 sequence (P00441 2-154 G94A limits assumed): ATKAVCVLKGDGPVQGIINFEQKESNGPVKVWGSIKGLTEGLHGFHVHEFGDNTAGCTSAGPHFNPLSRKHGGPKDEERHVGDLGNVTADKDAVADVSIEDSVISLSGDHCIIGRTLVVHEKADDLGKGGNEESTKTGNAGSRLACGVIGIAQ
human serum albumin, sequence (P02768 25-609): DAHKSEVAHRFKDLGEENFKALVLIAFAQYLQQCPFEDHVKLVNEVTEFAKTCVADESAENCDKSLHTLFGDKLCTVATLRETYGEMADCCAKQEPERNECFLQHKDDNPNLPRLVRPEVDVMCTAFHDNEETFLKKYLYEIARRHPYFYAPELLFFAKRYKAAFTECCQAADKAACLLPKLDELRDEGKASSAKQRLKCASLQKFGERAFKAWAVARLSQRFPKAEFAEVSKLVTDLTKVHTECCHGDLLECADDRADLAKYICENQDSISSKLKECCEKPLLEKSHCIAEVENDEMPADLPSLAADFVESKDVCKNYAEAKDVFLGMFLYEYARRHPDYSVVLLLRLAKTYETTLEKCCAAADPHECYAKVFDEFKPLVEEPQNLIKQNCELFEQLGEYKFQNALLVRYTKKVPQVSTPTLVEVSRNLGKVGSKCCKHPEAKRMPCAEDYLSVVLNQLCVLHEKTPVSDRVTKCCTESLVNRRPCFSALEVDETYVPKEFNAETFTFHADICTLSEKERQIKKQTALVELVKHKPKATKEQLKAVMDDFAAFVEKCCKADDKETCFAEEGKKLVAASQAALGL

[O-][S+]1CCCCS1 (stereo not drawn) [S-XL6, 1,2-dithiane-1-oxide]
Dmax of SOD1^G93A with S-XL6 (SOD1^G93A [1]): approximately 79 Å | binding to purified protein (human serum albumin): not bound | % Dimer (cross-linked SOD1^G93A in blood) (SOD1^G93A [2]; 0.5 h post dose): 38% | % Dimer (cross-linked SOD1^G93A in blood) (SOD1^G93A [2]; 1 h post dose): 63% | % Dimer (cross-linked SOD1^G93A in blood) (SOD1^G93A [2]; 2 h post dose): 55% | % Dimer (cross-linked SOD1^G93A in blood) (SOD1^G93A [2]; 4 h post dose): 53% | % Dimer (cross-linked SOD1^G93A in blood) (SOD1^G93A [2]; 8 h post dose): 51% | % Dimer (cross-linked SOD1^G93A in blood) (SOD1^G93A [2]; 12 h post dose): 42% | % Dimer (cross-linked SOD1^G93A in blood) (SOD1^G93A [2]; 24 h post dose): 26% | % Dimer (cross-linked SOD1^G93A in blood) (SOD1^G93A [2]; 48 h post dose): 20% | % Dimer (cross-linked SOD1^G93A in blood) (SOD1^G93A [2]; 72 h post dose): 16% | % Dimer (cross-linked SOD1^G93A in blood) (SOD1^G93A [2]; […] post dose): 6% | Target engagement in blood and brain (SOD1^G93A [2]; G93A fALS mouse): SOD1 dimer formation in G93A fALS mouse blood and brain | monomeric population of fALS variants after S-XL6 treatment (fALS SOD1 variants): decreased | large (>1,000 kDa) aggregates after S-XL6 treatment (fALS SOD1 variants; all fALS variants tested): diminished
